Results on 1 molecule are retold here after patent US20080268533A1, “Methods and Compositions Utilizing Myc and Gsk3Beta to Manipulate the Pluripotency of Embryonic Stem Cells” (University of Georgia Research Foundation, Inc., priority 2004, published 2008).

One series relates to myc^Δ40-178ER cells. In words: AP activity of dominant negative myc^Δ40-178ER cells with 4OHT. Particulars: +LIF, 4OHT (25 nM), 6-day period, 92% at start. It counts as cell-based, mouse. An excerpt:
While ES cell colonies with a typical domed-shape morphology could be maintained in the presence of LIF and in the absence of 4OHT over extended periods (>30 days), upon addition of 4OHT myc^Δ40-178ER cells changed morphology within several days, similar to that seen in spontaneously differentiating cells (data not shown). This coincided with down-regulation of specific transcripts associated with pluripotency such as Nanog and Oct4 together with the upregulation of early mesoderm (brachyury) and neuroectoderm (Sox1) transcripts (FIG. 10A). These trends were confirmed by AP activity assays in which the percentage of AP positive colonies declined from 92% to 45% over a 6-day period in the presence of 4OHT (FIG. 10B). […] This is consistent with the results showing that c-myc has a role in self-renewal and maintenance of pluripotency.

The next series has as its system mycER ES cells. The experiment in a line: AP activity of mycER ES cells with 4OHT. It counts as cell-based, mouse. The procedure:
In the presence of 4OHT (mycER on), ES cells retained a uniform dome-shaped colony morphology (FIG. 1B), similar to that of LIF maintained cells (data not shown). In contrast, withdrawal of 4OHT promoted a distinct flattening of colonies with a less uniform appearance (FIG. 1C) that correlated with ES cells undergoing differentiation in the absence of LIF (data not shown). The ability of c-myc to promote ES cell self-renewal was confirmed in a LIF titration assay where mycER ES cells were grown in the presence or absence of 4OHT for 6 days in media containing LIF over a range of 0-1×10^3 units per ml and then assayed for AP activity. […] MycER cells were then grown in the presence or absence of 4OHT in the absence of LIF for up to 15 days and assayed for AP activity. […] Including low levels of LIF (7.5 units/ml), that by itself had only a small effect on maintaining AP levels over 15 days, appeared to further delay the loss of AP activity in mycER cells grown with 4OHT.

In a further series the test system is vector alone cell lines. In words: Self-renewal of vector alone ES cell lines with 4OHT. Type of series: cell-based, mouse. Particulars: absence of LIF. An excerpt: Furthermore, authentic c-myc could maintain self-renewal in a similar manner to mycER fusions when expressed constitutively, independently of 4OHT (data not shown).
A further series has as its system myc^T58AER cells. The following applies: 4OHT (−LIF) versus LIF maintained cells, 14-day period.
Series [1] relates to hES BG01 cell lines transfected with c-myc^T58AER. Type of series: cell-based. The procedure: To address this question in hESCs, clonal hES BG01 cell lines transfected with a human c-myc^T58AER gene fusion were generated, identical to that used in the previous mESC studies.
To establish a role for c-myc in HESC self-renewal, c-myc activity was enforced by the addition of 4OHT. This experiment was performed to determine whether c-myc could maintain normal HESC growth and morphology on Matrigel for a period of approximately 15 days (3 passages) in the absence of MEF-CM and bFGF, conditions where spontaneous differentiation would be anticipated. Uninduced (−40HT) cells overtly differentiated after approximately 5-6 days in a manner closely resembling untransfected hESCs when grown in the absence of MEF-CM and bFGF on Matrigel, as judged by changes in cell/colony morphology, increased cell spreading, and a reduction in cell packing density (FIGS. 11B and C and data not shown). The cell lines were also analyzed by immunoblot analysis, evaluating levels of c-myc^T58AER, c-myc, and cdk2 (FIG. 11A).
Alkaline phosphatase (AP) activity was used as a read-out to assess whether c-myc maintained hESCs were still pluripotent. 67% of colonies grown with 4OHT were AP positive in contrast to −4OHT cells where only 4% were positive after a 15 day period (FIG. 11D and data not shown). As in mouse ES cells, elevated c-myc activity caused significant cell death (data not shown).

Protocol for myc^T58AER cells: For long-term maintenance, mycER and myc^T58AER mouse ES cells were grown in ES complete media supplemented with 4-hydroxytomoxifen (4OHT) (100 nM or 2-10 nM, respectively) and re-fed every second day. For differentiation of ES cells as embryoid bodies (EB), cells were trypsinized and replated on bacteriological dishes at 1.6×10^5 cells/cm^2 and grown in ESC media (−LIF) plus or minus 4OHT to allow for EB formation. Cells were re-fed every second day and expanded after 4 days of culture. mycER cells were passaged by limited trypsinization, avoiding generation of single cell suspensions. AP activity was assayed with Alkaline Phosphatase Substrate Kit I (Vector Laboratories) according to the manufacturers' instructions. LIF titration assays were performed over a range of 0 to 1×10^3 units ESGRO per ml in the presence or absence of 4OHT by plating cells in 24 well plates.

As for `CC/C(=C(\c1ccc(O)cc1)c1ccc(OCCN(C)C)cc1)c1ccccc1` [4OHT, 4-hydroxytomoxifen], in the series on myc^Δ40-178ER cells, the “percentage of AP positive colonies” value was found to be 45%. Further, the “AP activity (positive)” value with mycER ES cells (mycER cells grown in 4OHT, 6 days, entire LIF titration range 0-1×10^3 units per ml) was > 90%. Further, the AP activity result with mycER ES cells (mycER cells, 14 days, −LIF, in the presence of 4OHT) is “significantly reduced”; in the series on myc^T58AER cells, “comparable between LIF maintained cells and those grown in the presence of 4OHT”. In addition, in the series with vector alone cell lines, the self-renewal entry is on record as “did not promote self-renewal”. Moreover, in series [1] (4OHT titration, c-myc^T58AER BG01 cell line), the “highest concentration of drug that did not promote c-myc-dependent cell death (optimal)” value lay within 1 to 5 nM. Besides, the “colonies AP positive” value in series [1] (c-myc^T58AER hESCs grown with 4OHT, Matrigel, no MEF-CM and bFGF, 15 day period) worked out at 67%.
